In patent US12655116B2, “Substituted isophthalic acid diamides” (Bayer Aktiengesellschaft, priority 2020, dated 2026):

Key:
PHBPU [1] = test: Post-emergence herbicidal action against PHBPU; type: in vivo, Pharbitis purpurea
How it was run: (§1)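 Sandy loam, greenhouse; treatment 2–3 weeks after sowing, one-leaf stage. Aqueous suspension or emulsion from WP/EC sprayed on foliage (600–800 l/ha, 0.2% wetting agent). Readout: visual % action, ~3 weeks.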

ECHCG [2] = test: Post-emergence herbicidal action against ECHCG; type: in vivo, Echinochloa crus-galli
How it was run: as §1

VERPE [3] = test: Post-emergence herbicidal action against VERPE; type: in vivo, Veronica persica; details: 20 g/ha
How it was run: as §1

PHBPU [4] = test: Pre-emergence herbicidal action against PHBPU; type: in vivo, Pharbitis purpurea; details: dosage 80 g/ha
How it was run: (§2)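 Seeds sown in sandy loam, soil-covered; compound sprayed on soil surface pre-emergence. Application: WP/EC, 600–800 l/ha, 0.2% wetting agent. Readout: visual % damage at 3 weeks.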

MATIN [5] = test: Pre-emergence herbicidal action against MATIN; type: in vivo, Matricaria inodora
How it was run: as §2

ABUTH [6] = test: Pre-emergence herbicidal action against ABUTH; type: in vivo, Abutilon theophrasti; details: for Pre-emergence action against ABUTH (herbicidal activity): 80 g/ha, scored visually after 3 weeks vs untreated controls (100% = plants have died, 0% = like control plants)
How it was run: as §2

SETVI [7] = test: Post-emergence herbicidal action against SETVI; type: in vivo, Setaria viridis
How it was run: as §1

POLCO = test: Pre-emergence herbicidal action against POLCO; type: in vivo, Polygonum convolvulus; details: dosage 80 g/ha
How it was run: as §2

ABUTH [8] = test: Post-emergence herbicidal action against ABUTH; type: in vivo, Abutilon theophrasti; details: visual assessment about 3 weeks after treatment vs untreated controls
How it was run: as §1

AMARE [9] = test: Pre-emergence herbicidal action against AMARE; type: in vivo, Amaranthus retroflexus
How it was run: as §2

VIOTR [10] = test: Post-emergence herbicidal action against VIOTR; type: in vivo, Viola tricolor
How it was run: as §1

SETVI [11] = test: Pre-emergence herbicidal action against SETVI; type: in vivo, Setaria viridis
How it was run: as §2

ALOMY [12] = test: Post-emergence herbicidal action against ALOMY; type: in vivo, Alopecurus myosuroides; details: dosage 20 g/ha, visual assessment about 3 weeks after treatment vs untreated controls
How it was run: as §1

DIGSA [13] = test: Post-emergence herbicidal action against DIGSA; type: in vivo, Digitaria sanguinalis
How it was run: as §1

VIOTR [14] = test: Pre-emergence herbicidal action against VIOTR; type: in vivo, Viola tricolor
How it was run: as §2

AMARE [15] = test: Post-emergence herbicidal action against AMARE; type: in vivo, Amaranthus retroflexus; details: 20 g/ha, visual assessment about 3 weeks after treatment, 100% = plants have died, 0% = like control plants
How it was run: as §1

VERPE [16] = test: Pre-emergence herbicidal action against VERPE; type: in vivo, Veronica persica; details: dosage 80 g/ha
How it was run: as §2

AVEFA [17] = test: Pre-emergence herbicidal action against AVEFA; type: in vivo, Avena fatua; details: 80 g/ha, pre-emergence
How it was run: as §2

ALOMY [18] = test: Pre-emergence herbicidal action against ALOMY; type: in vivo, Alopecurus myosuroides; details: 80 g/ha, pre-emergence, scored visually after 3 weeks vs untreated controls (100% = plants have died, 0% = like control plants)
How it was run: as §2

DIGSA [19] = test: Pre-emergence herbicidal action against DIGSA; type: in vivo, Digitaria sanguinalis
How it was run: as §2

ECHCG [20] = test: Pre-emergence herbicidal action against ECHCG; type: in vivo, Echinochloa crus-galli
How it was run: as §2

AVEFA [21] = test: Post-emergence herbicidal action against AVEFA; type: in vivo, Avena fatua; details: 20 g/ha, visual assessment about 3 weeks after treatment, 100% = plants have died, 0% = like control plants
How it was run: as §1

MATIN [22] = test: Post-emergence herbicidal action against MATIN; type: in vivo, Matricaria inodora
How it was run: as §1

STEME [23] = test: Post-emergence herbicidal action against STEME; type: in vivo, Stellaria media; details: 20 g/ha
Procedure: Seeds of monocotyledonous and dicotyledonous weed and crop plants are laid out in sandy loam soil in wood-fiber pots, covered with soil and cultivated in a greenhouse under good growth conditions. 2 to 3 weeks after sowing, the test plants are treated at the one-leaf stage. The compounds of the invention, formulated in the form of wettable powders (WP) or as emulsion concentrates (EC), are then sprayed onto the green parts of the plants in the form of an aqueous suspension or emulsion at a water application rate equivalent to 600 to 800 l/ha, with addition of 0.2% wetting agent. After the test plants have been left to stand in the greenhouse under optimal growth conditions for about 3 weeks, the action of the preparations is assessed visually in comparison to untreated controls (herbicidal action in percent (%): 100% activity=the plants have died, 0% activity=like control plants). […] The tables below illustrate, in an illustrative manner, the post-emergence herbicidal action of the compounds of the invention, the herbicidal activity being stated in percent.

STEME [24] = test: Pre-emergence herbicidal action against STEME; type: in vivo, Stellaria media
Excerpt: Seeds of monocotyledonous and dicotyledonous weed plants and crop plants are laid out in sandy loam soil in wood-fiber pots and covered with soil. The compounds of the invention, formulated in the form of wettable powders (WP) or as emulsion concentrates (EC), are then applied to the surface of the covering soil in the form of an aqueous suspension or emulsion at a water application rate equivalent to 600 to 800 l/ha, with addition of 0.2% wetting agent. After the treatment, the pots are placed in a greenhouse and kept under good growth conditions for the trial plants. The damage to the test plants is scored visually after a test period of 3 weeks by comparison with untreated controls (herbicidal activity in percent (%): 100% activity=the plants have died, 0% activity=like control plants). […] The tables below illustrate, in an illustrative manner, the post-emergence herbicidal action of the compounds of the invention, the herbicidal activity being stated in percent.

[25] = 20 g/ha, scored visually after 3 weeks vs untreated controls, 100% = plants have died, 0% = like control plants
[26] = 80 g/ha, scored visually after 3 weeks vs untreated controls (100% = plants have died, 0% = like control plants)

CCNC(=O)c1c(C(F)(F)F)ccc(C(=O)Nc2nnnn2CC)c1OC [Example 2-57]
100%: Post-emergence action against ECHCG in % (ECHCG [2]; dosage 5 g/ha) | Post-emergence action against ECHCG in % (ECHCG [2]; dosage 20 g/ha) | Pre-emergence action against MATIN in % (MATIN [5]; dosage 80 g/ha) | Pre-emergence action against ABUTH (herbicidal activity) (ABUTH [6]) | Pre-emergence action against ABUTH (herbicidal activity in percent) (ABUTH [6]; dosage 20 g/ha, scored visually after 3 weeks vs untreated controls, 100% = plants have died, 0% = like control plants) | Post-emergence action against SETVI in % (SETVI [7]; dosage 5 g/ha) | Post-emergence action against SETVI in % (SETVI [7]; dosage 20 g/ha) | Post-emergence action against ABUTH in % (ABUTH [8]; dosage 20 g/ha) | Pre-emergence action against AMARE in % (AMARE [9]; [25]) | Pre-emergence action against AMARE in % (AMARE [9]; [26]) | Post-emergence action against VIOTR in % (VIOTR [10]; 20 g/ha) | Pre-emergence action against SETVI in % (SETVI [11]; dosage 80 g/ha) | Post-emergence action against DIGSA (DIGSA [13]; 20 g/ha) | Pre-emergence action against VIOTR in % (VIOTR [14]; dosage 20 g/ha) | Pre-emergence action against VIOTR in % (VIOTR [14]; dosage 80 g/ha) | Post-emergence action at 20 g/ha against AMARE in % (AMARE [15]) | Pre-emergence action against DIGSA in % (DIGSA [19]; dosage 20 g/ha) | Pre-emergence action against DIGSA in % (DIGSA [19]; dosage 80 g/ha) | Pre-emergence action against ECHCG in % (ECHCG [20]; 80 g/ha)
80%: Post-emergence action against PHBPU in % (PHBPU [1]; dosage 5 g/ha) | Pre-emergence action against PHBPU in % (PHBPU [4]) | Pre-emergence action against SETVI in % (SETVI [11]; dosage 20 g/ha) | Post-emergence action at 20 g/ha against AVEFA in % (AVEFA [21]) | Post-emergence action against MATIN in % (MATIN [22]; dosage 5 g/ha)
90%: Post-emergence action against PHBPU in % (PHBPU [1]; dosage 20 g/ha) | Post-emergence action against VERPE in % (VERPE [3]) | Pre-emergence action against MATIN in % (MATIN [5]; dosage 20 g/ha) | Pre-emergence action against POLCO in % (POLCO) | Post-emergence action against ABUTH in % (ABUTH [8]; dosage 5 g/ha) | Post-emergence action against VIOTR in % (VIOTR [10]; 5 g/ha) | Post-emergence action against ALOMY in % (ALOMY [12]) | Post-emergence action against DIGSA in % (DIGSA [13]; 5 g/ha) | Pre-emergence action against VERPE in % (VERPE [16]) | Pre-emergence action against AVEFA in % (AVEFA [17]) | Pre-emergence action against ALOMY (herbicidal activity) (ALOMY [18]) | Pre-emergence action against ECHCG in % (ECHCG [20]; 20 g/ha) | Post-emergence action against MATIN in % (MATIN [22]; dosage 20 g/ha)

CCn1nnnc1NC(=O)c1ccc(S(C)(=O)=O)c(C(=O)NC2CC2)c1Cl [Example 2-125]
100%: Pre-emergence action against MATIN in % (MATIN [5]; dosage 80 g/ha) | Pre-emergence action against ABUTH (herbicidal activity) (ABUTH [6]) | Pre-emergence action against STEME in % (STEME [24]; dosage 80 g/ha) | Pre-emergence action against AMARE in % (AMARE [9]; [26]) | Post-emergence action against VIOTR in % (VIOTR [10]; 5 g/ha) | Post-emergence action against VIOTR in % (VIOTR [10]; 20 g/ha) | Pre-emergence action against VIOTR in % (VIOTR [14]; dosage 80 g/ha) | Pre-emergence action against AVEFA in % (AVEFA [17])
80%: Post-emergence action against STEME in % (STEME [23]) | Pre-emergence action against MATIN in % (MATIN [5]; dosage 20 g/ha) | Pre-emergence action against STEME in % (STEME [24]; dosage 20 g/ha) | Pre-emergence action against AMARE in % (AMARE [9]; [25]) | Post-emergence action at 20 g/ha against AMARE in % (AMARE [15])
